# Measurements taken from ChEMBL document CHEMBL1201862, “PubChem BioAssay data set” (2004).
#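 Five compound concentrations were applied to cells in 96-well plates for 48 hours; endpoints were derived by simple linear interpolation of the resulting dose-response curve. Here, GI50 denotes the concentration required for 50% inhibition of growth.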 Activity calls are given as the source filed them. No stated cut-off is given here; in the data, active = GI50 up to about 1.1 µM and inactive = higher.
# Key:
# Test in all cases: DTP human tumour cell line panel, 48 h
# 786-0 = test system: 786-0
# CCRF-CEM = test system: CCRF-CEM
# COLO 205 = test system: COLO 205
# DU-145 = test system: DU-145
# HCT-116 = test system: HCT-116
# HT-29 = test system: HT-29
# Hs-578T = test system: Hs-578T
# IGROV-1 = test system: IGROV-1
# MOLT-4 = test system: MOLT-4
# NCI-H460 = test system: NCI-H460
# OVCAR-3 = test system: OVCAR-3
# PC-3 = test system: PC-3
# SF-295 = test system: SF-295
# SK-MEL-28 = test system: SK-MEL-28
# SK-MEL-2 = test system: SK-MEL-2
# SK-MEL-5 = test system: SK-MEL-5
# TK-10 = test system: TK-10
# UACC-62 = test system: UACC-62
SMILES,GI50 (786-0),GI50 (CCRF-CEM),GI50 (COLO 205),GI50 (DU-145),GI50 (HCT-116),GI50 (HT-29),GI50 (Hs-578T),GI50 (IGROV-1),GI50 (MOLT-4),GI50 (NCI-H460),GI50 (OVCAR-3),GI50 (PC-3),GI50 (SF-295),GI50 (SK-MEL-28),GI50 (SK-MEL-2),GI50 (SK-MEL-5),GI50 (TK-10),GI50 (UACC-62)
CC1(C)OCC2OC(n3cnc4c(N)nc(Cl)nc43)C(OS(C)(=O)=O)C2O1 (configuration not stated),> 100 µM (inactive),> 100 µM (inactive),> 100 µM (inactive),> 100 µM (inactive),> 100 µM (inactive),> 100 µM (inactive),> 100 µM (inactive),> 100 µM (inactive),48.2 µM (inactive),> 100 µM (inactive),> 100 µM (inactive),> 100 µM (inactive),> 100 µM (inactive),> 100 µM (inactive),> 100 µM (inactive),> 100 µM (inactive),> 100 µM (inactive),> 100 µM (inactive)
CC(C(=O)ON1C(=O)CCC1=O)c1ccc(C(=O)c2ccccc2)s1 (configuration not stated),> 100 µM (inactive),> 100 µM (inactive),> 100 µM (inactive),> 100 µM (inactive),> 100 µM (inactive),> 100 µM (inactive),> 100 µM (inactive),> 100 µM (inactive),> 100 µM (inactive),> 100 µM (inactive),> 100 µM (inactive),> 100 µM (inactive),> 100 µM (inactive),> 100 µM (inactive),> 100 µM (inactive),> 100 µM (inactive),> 100 µM (inactive),> 100 µM (inactive)
O=c1c2cc([N+](=O)[O-])ccc2oc2nc3n(c(=O)c12)CCCS3,66.8 µM (inactive),> 100 µM (inactive),> 100 µM (inactive),> 100 µM (inactive),> 100 µM (inactive),–,56.1 µM (inactive),> 100 µM (inactive),> 100 µM (inactive),> 100 µM (inactive),> 100 µM (inactive),> 100 µM (inactive),> 100 µM (inactive),> 100 µM (inactive),> 100 µM (inactive),> 100 µM (inactive),> 100 µM (inactive),> 100 µM (inactive)
CC1S/C(=N/c2nnc(-c3ccccc3)o2)NC1=O (configuration not stated),28.3 µM (inactive),14.5 µM (inactive),47.1 µM (inactive),81.3 µM (inactive),17.7 µM (inactive),27.7 µM (inactive),> 100 µM (inactive),43.9 µM (inactive),30.5 µM (inactive),–,18.5 µM (inactive),38.5 µM (inactive),18.3 µM (inactive),74.6 µM (inactive),69.5 µM (inactive),35.9 µM (inactive),58.7 µM (inactive),52.6 µM (inactive)
OC1(c2ccc(-c3ccccc3)cc2)c2ccccc2C2=NCCN21 (configuration not stated),16 µM (inactive),39.9 µM (inactive),21.4 µM (inactive),> 100 µM (inactive),30.3 µM (inactive),21.4 µM (inactive),22.4 µM (inactive),–,27.1 µM (inactive),45.8 µM (inactive),19 µM (inactive),11.9 µM (inactive),52.2 µM (inactive),21.7 µM (inactive),3.61 µM (inactive),19.8 µM (inactive),> 100 µM (inactive),20.4 µM (inactive)
CCOC(=O)n1c(=O)nc2c3c(ncn21)Oc1c(c(-c2ccccc2)nn1-c1ccccc1)C3c1ccc(Cl)cc1 (configuration not stated),1.52 µM (inactive),1.1 µM (active),1.32 µM (inactive),1.71 µM (inactive),1.5 µM (inactive),1.75 µM (inactive),1.66 µM (inactive),–,–,1.68 µM (inactive),1.48 µM (inactive),1.73 µM (inactive),1.86 µM (inactive),1.79 µM (inactive),1.84 µM (inactive),1.7 µM (inactive),1.7 µM (inactive),1.7 µM (inactive)
COc1cc(C(=O)OCCn2[nH]c(-c3ccc(Cl)cc3)nc2=S)cc(OC)c1OC,62.8 µM (inactive),33 µM (inactive),> 100 µM (inactive),23.6 µM (inactive),> 100 µM (inactive),> 100 µM (inactive),47.8 µM (inactive),–,22.9 µM (inactive),> 100 µM (inactive),51.3 µM (inactive),> 100 µM (inactive),44.7 µM (inactive),42.7 µM (inactive),> 100 µM (inactive),48.2 µM (inactive),54.3 µM (inactive),> 100 µM (inactive)
O=c1oc2ccc3ccccc3c2cc1-c1nc2ccccc2s1,> 100 µM (inactive),> 100 µM (inactive),> 100 µM (inactive),> 100 µM (inactive),> 100 µM (inactive),> 100 µM (inactive),> 100 µM (inactive),> 100 µM (inactive),–,> 100 µM (inactive),> 100 µM (inactive),> 100 µM (inactive),> 100 µM (inactive),> 100 µM (inactive),> 100 µM (inactive),> 100 µM (inactive),> 100 µM (inactive),> 100 µM (inactive)
